Assay results: patent US8802597B2, “Herbicidal pyrimidines” (E I du Pont de Nemours and Company, priority 2003, dated 2014)

Legend:
Format in all cases: in vivo
[1] = tested on: bearded (brdd.) sprangletop (Leptochloa fusca ssp. fascicularis); experiment: Test E flooded paddy water application; details: Flood, 21 days, scale 0 to 100 (0 no effect, 100 complete control)
Summary of the method: (§1)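 Weeds sown in sterilized Tama silt loam (2.6% organic matter), greenhouse 29.5/26.7° C, 16-h photoperiod; at 2.0–2.5-leaf stage pots flooded to 3 cm and compound added to paddy water. Visual rating vs untreated controls after 21 days, 0 (no effect) to 100 (complete control).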

[2] = tested on: ducksalad (Heteranthera limosa); experiment: Test E flooded paddy water application; details: Flood, 21 days, scale 0 to 100 (0 no effect, 100 complete control)
Summary of the method: as §1

[3] = tested on: purple redstem (Ammannia coccinea); experiment: Test E flooded paddy water application; details: Flood, 21 days, scale 0 to 100 (0 no effect, 100 complete control)
Summary of the method: as §1

[4] = tested on: rice flatsedge (Cyperus iria); experiment: Test E flooded paddy water application; details: Flood, 21 days, scale 0 to 100 (0 no effect, 100 complete control)
Summary of the method: as §1

[5] = tested on: junglerice (Echinochloa colona); experiment: Test E flooded paddy water application; details: Flood, 21 days, scale 0 to 100 (0 no effect, 100 complete control)
Summary of the method: as §1

[6] = tested on: transplanted rice seedlings (Oryza sativa cv. ‘Japonica-M202’); experiment: Test E flooded paddy water application; details: Flood, 21 days, scale 0 to 100 (0 no effect, 100 complete control)
Summary of the method: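 Response scored visually on a 0–100 scale (100 = complete control) at 21 days against untreated pots. Treatment was into paddy water 3 cm deep over silt loam, with plants at the 2.0–2.5-leaf stage, grown under 16-h light at 29.5/26.7 °C day/night.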

[7] = tested on: early watergrass (Echinochloa oryzoides); experiment: Test E flooded paddy water application; details: Flood, 21 days, scale 0 to 100 (0 no effect, 100 complete control)
Summary of the method: as §1

[8] = tested on: water seeded rice seedlings (Oryza sativa cv. ‘Japonica-M202’); experiment: Test E flooded paddy water application; details: Flood, 21 days, scale 0 to 100 (0 no effect, 100 complete control)
Summary of the method: as §1

[9] = tested on: smallflower umbrella sedge (Cyperus difformis); experiment: Test E flooded paddy water application; details: Flood, 21 days, scale 0 to 100 (0 no effect, 100 complete control)
Summary of the method: as §1

[10] = tested on: late watergrass (Echinochloa oryzicola); experiment: Test E flooded paddy water application; details: Flood, 21 days, scale 0 to 100 (0 no effect, 100 complete control)
Summary of the method: as §1

[11] = tested on: barnyardgrass (Echinochloa crus-galli); experiment: Test E flooded paddy water application; details: Flood, 21 days, scale 0 to 100 (0 no effect, 100 complete control)
Summary of the method: as §1

[12] = tested on: morningglory (Ipomoea spp.); experiment: Test A pre/postemergence
Summary of the method: (§2)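 Visual injury scored 0–100 (0 = no effect, 100 = complete control) against untreated controls after about ten days in the greenhouse. Compounds, formulated in non-phytotoxic solvent plus surfactant, were applied preemergence as a directed soil spray and postemergence at the 1- to 2-leaf stage (2–10 cm).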

[13] = tested on: giant foxtail (Setaria faberi); experiment: Test A pre/postemergence
Summary of the method: as §2

[14] = tested on: velvetleaf (Abutilon theophrasti); experiment: Test A pre/postemergence
Summary of the method: as §2

[15] = tested on: redroot pigweed (Amaranthus retroflexus); experiment: Test A pre/postemergence
Summary of the method: as §2

[16] = tested on: crabgrass (Digitaria sanguinalis); experiment: Test A pre/postemergence
Summary of the method: as §2

[17] = tested on: barnyardgrass (Echinochloa crus-galli); experiment: Test A pre/postemergence
Summary of the method: as §2

[18] = Postemergence, 125 g ai/ha, 0 to 100 scale (0 no effect, 100 complete control)
[19] = Postemergence, 500 g ai/ha, 0 to 100 scale (0 no effect, 100 complete control)
[20] = Preemergence, 125 g ai/ha, 0 to 100 scale where 0 is no effect and 100 is complete control, approximately ten days
[21] = Preemergence, 500 g ai/ha, 0 to 100 scale where 0 is no effect and 100 is complete control, approximately ten days

CCOC(=O)c1nc(-c2ccc(Cl)c(Cl)c2)nc(N)c1Cl [Compound 73]
Sprangletop, Brdd. plant response rating ([1]; 32 g ai/ha): 0 | Sprangletop, Brdd. plant response rating ([1]; 64 g ai/ha): 0 | Sprangletop, Brdd. plant response rating ([1]; 125 g ai/ha): 50 | Sprangletop, Brdd. plant response rating ([1]; 250 g ai/ha): 70 | Plant response rating, Sprangletop, Brdd. ([1]; 16 g ai/ha): 0 | Ducksalad plant response rating ([2]; 32 g ai/ha): 100 | Ducksalad plant response rating ([2]; 64 g ai/ha): 100 | Ducksalad plant response rating ([2]; 125 g ai/ha): 100 | Ducksalad plant response rating ([2]; 250 g ai/ha): 100 | Plant response rating, Ducksalad ([2]; 16 g ai/ha): 75 | Redstem plant response rating ([3]; 32 g ai/ha): 0 | Redstem plant response rating ([3]; 64 g ai/ha): 90 | Redstem plant response rating ([3]; 125 g ai/ha): 100 | Redstem plant response rating ([3]; 250 g ai/ha): 100 | Plant response rating, Redstem ([3]; 16 g ai/ha): 0 | Flatsedge, Rice plant response rating ([4]; 32 g ai/ha): 0 | Flatsedge, Rice plant response rating ([4]; 64 g ai/ha): 0 | Flatsedge, Rice plant response rating ([4]; 250 g ai/ha): 45 | Plant response rating, Flatsedge, Rice ([4]; 16 g ai/ha): 0 | Junglerice plant response rating ([5]; 32 g ai/ha): 0 | Junglerice plant response rating ([5]; 64 g ai/ha): 0 | Junglerice plant response rating ([5]; 125 g ai/ha): 0 | Junglerice plant response rating ([5]; 250 g ai/ha): 0 | Plant response rating, Junglerice ([5]; 16 g ai/ha): 0 | Rice, Transplanted plant response rating ([6]; 32 g ai/ha): 0 | Rice, Transplanted plant response rating ([6]; 64 g ai/ha): 0 | Rice, Transplanted plant response rating ([6]; 125 g ai/ha): 0 | Rice, Transplanted plant response rating ([6]; 250 g ai/ha): 0 | Plant response rating, Rice, Transplanted ([6]; 16 g ai/ha): 0 | Watergrass, Early plant response rating ([7]; 32 g ai/ha): 0 | Watergrass, Early plant response rating ([7]; 64 g ai/ha): 0 | Watergrass, Early plant response rating ([7]; 125 g ai/ha): 0 | Watergrass, Early plant response rating ([7]; 250 g ai/ha): 0 | Plant response rating, Watergrass, Early ([7]; 16 g ai/ha): 0 | Rice, Water Seeded plant response rating ([8]; 32 g ai/ha): 0 | Rice, Water Seeded plant response rating ([8]; 64 g ai/ha): 0 | Rice, Water Seeded plant response rating ([8]; 125 g ai/ha): 0 | Rice, Water Seeded plant response rating ([8]; 250 g ai/ha): 0 | Plant response rating, Rice, Water Seeded ([8]; 16 g ai/ha): 0 | Sedge, Umbrella plant response rating ([9]; 32 g ai/ha): 0 | Sedge, Umbrella plant response rating ([9]; 64 g ai/ha): 0 | Sedge, Umbrella plant response rating ([9]; 125 g ai/ha): 35 | Sedge, Umbrella plant response rating ([9]; 250 g ai/ha): 85 | Plant response rating, Sedge, Umbrella ([9]; 16 g ai/ha): 0 | Watergrass, Late plant response rating ([10]; 32 g ai/ha): 0 | Watergrass, Late plant response rating ([10]; 64 g ai/ha): 0 | Watergrass, Late plant response rating ([10]; 125 g ai/ha): 0 | Watergrass, Late plant response rating ([10]; 250 g ai/ha): 20 | Plant response rating, Watergrass, Late ([10]; 16 g ai/ha): 0 | Barnyardgrass plant response rating ([11]; 64 g ai/ha): 0 | Barnyardgrass plant response rating ([11]; 125 g ai/ha): 90 | Barnyardgrass plant response rating ([11]; 250 g ai/ha): 100 | Plant response rating, Barnyardgrass ([11]; 16 g ai/ha): 0 | Plant response rating, Morningglory [12, 18]: 50 | Plant response rating, Morningglory [12, 19]: 65 | Plant response rating, Morningglory [12, 20]: 0 | Plant response rating, Morningglory [12, 21]: 0 | Plant response rating, Foxtail, Giant [13, 18]: 15 | Plant response rating, Foxtail, Giant [13, 19]: 45 | Plant response rating, Foxtail, Giant [13, 20]: 0 | Plant response rating, Foxtail, Giant [13, 21]: 15 | Plant response rating, Velvetleaf [14, 18]: 70 | Plant response rating, Velvetleaf [14, 19]: 75 | Plant response rating, Velvetleaf [14, 20]: 35 | Plant response rating, Velvetleaf [14, 21]: 40 | Plant response rating, Pigweed [15, 18]: 75 | Plant response rating, Pigweed [15, 19]: 80 | Plant response rating, Pigweed [15, 20]: 15 | Plant response rating, Pigweed [15, 21]: 60 | Plant response rating, Crabgrass [16, 18]: 15 | Plant response rating, Crabgrass [16, 19]: 35 | Plant response rating, Crabgrass [16, 20]: 5 | Plant response rating, Crabgrass [16, 21]: 35 | Plant response rating, Barnyardgrass [17, 18]: 0 | Plant response rating, Barnyardgrass [17, 19]: 5 | Plant response rating, Barnyardgrass [17, 20]: 5 | Plant response rating, Barnyardgrass [17, 21]: 30
